In ChEMBL document CHEMBL3124937, “Design, synthesis and biological evaluation of 7-nitro-1H-indole-2-carboxylic acid derivatives as allosteric inhibitors of fructose-1,6-bisphosphatase” (Bioorg Med Chem, 2014):

Biological target: T1, Fructose-1,6-bisphosphatase 1 (Homo sapiens, UniProt P09467)
T1 sequence (P09467 whole entry): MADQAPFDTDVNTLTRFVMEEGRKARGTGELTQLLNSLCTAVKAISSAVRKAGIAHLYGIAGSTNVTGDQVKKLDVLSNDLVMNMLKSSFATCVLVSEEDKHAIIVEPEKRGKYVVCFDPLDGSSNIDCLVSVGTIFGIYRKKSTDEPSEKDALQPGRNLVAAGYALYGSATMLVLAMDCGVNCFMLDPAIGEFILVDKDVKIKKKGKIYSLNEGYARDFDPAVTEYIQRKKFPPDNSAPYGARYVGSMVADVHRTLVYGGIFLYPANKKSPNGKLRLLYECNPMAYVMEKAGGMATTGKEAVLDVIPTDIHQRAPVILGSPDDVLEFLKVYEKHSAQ
Assay: Inhibition of human recombinant FBPase expressed in Escherichia coli BL21(DE3) by phosphoglucose isomerase and glucose-6-phosphate dehydrogenase coupled assay

Row | Structure (SMILES) | IC50 [µM]
1 | COc1ccccc1Nc1ccc([N+](=O)[O-])c2[nH]c(C(=O)O)cc12 | > 50
2 | O=C(O)c1cc2c(-c3cccc(Cl)c3)ccc([N+](=O)[O-])c2[nH]1 | > 50
3 | O=C(O)CCc1c(C(=O)O)[nH]c2cc(Cl)cc(Cl)c12 | 2
4 | O=C(O)c1cc2c(Nc3cccc(Cl)c3)ccc([N+](=O)[O-])c2[nH]1 | > 50
5 | COc1ccc(Nc2ccc([N+](=O)[O-])c3[nH]c(C(=O)O)cc23)cc1OC | 7.7
6 | O=C(O)c1cc2c(-c3cccc(C(F)(F)F)c3)ccc([N+](=O)[O-])c2[nH]1 | > 50
7 | CCc1c(C(=O)O)[nH]c2c([N+](=O)[O-])cc(CC(C)C)cc12 | 0.99
8 | COc1ccc(Nc2ccc([N+](=O)[O-])c3[nH]c(C(=O)O)cc23)cc1 | > 50
9 | Nc1cccc(-c2ccc([N+](=O)[O-])c3[nH]c(C(=O)O)cc23)c1 | > 50
10 | Cc1cccc(-c2ccc([N+](=O)[O-])c3[nH]c(C(=O)O)cc23)c1 | 25.9
11 | O=C(O)c1[nH]c2c([N+](=O)[O-])cccc2c1-c1cccc(F)c1 | 4.5
12 | COc1cccc(Nc2cc([N+](=O)[O-])c3[nH]c(C(=O)O)cc3c2)c1 | 4.06
13 | O=C(O)c1cc2c(Nc3ccccc3)ccc([N+](=O)[O-])c2[nH]1 | > 50
14 | O=C(O)c1[nH]c2c([N+](=O)[O-])cccc2c1-c1ccccc1 | 12.7
15 | CC(C)Cc1ccc([N+](=O)[O-])c2[nH]c(C(=O)O)cc12 | 9.7
16 | O=C(O)c1cc2c(Nc3cccc(C(F)(F)F)c3)ccc([N+](=O)[O-])c2[nH]1 | 29.1
17 | CC(=O)Nc1cccc(-c2c(C(=O)O)[nH]c3c([N+](=O)[O-])cccc23)c1 | 7.4
18 | CCCN(c1cccc(OC)c1)c1ccc([N+](=O)[O-])c2[nH]c(C(=O)O)cc12 | > 50
19 | CC(C)Cc1c(C(=O)O)[nH]c2c([N+](=O)[O-])cccc12 | 10.3
20 | Nc1ncnc2c1ncn2[C@@H]1O[C@H](COP(=O)(O)O)[C@@H](O)[C@H]1O [ADENOSINE PHOSPHATE] | 3.2
21 | Cc1cccc(Nc2ccc([N+](=O)[O-])c3[nH]c(C(=O)O)cc23)c1 | 4.3

Row | Structure (SMILES) | IC50 [µM]
22 | Cc1ccc(Nc2ccc([N+](=O)[O-])c3[nH]c(C(=O)O)cc23)cc1 | 33.9
23 | CC(C)Cc1cc([N+](=O)[O-])c2[nH]c(C(=O)O)cc2c1 | 5.4
24 | COc1cc(Nc2ccc([N+](=O)[O-])c3[nH]c(C(=O)O)cc23)cc(OC)c1OC | > 50
25 | COc1cccc(Nc2ccc([N+](=O)[O-])c3[nH]c(C(=O)O)cc23)c1 | 25.6
26 | O=C(O)c1cc2c(-c3ccc(Cl)cc3)ccc([N+](=O)[O-])c2[nH]1 | > 50
27 | CC(=O)Nc1cccc(Nc2ccc([N+](=O)[O-])c3[nH]c(C(=O)O)cc23)c1 | > 50
28 | N#Cc1cccc(-c2ccc([N+](=O)[O-])c3[nH]c(C(=O)O)cc23)c1 | > 50
29 | Nc1cccc(Nc2ccc([N+](=O)[O-])c3[nH]c(C(=O)O)cc23)c1 | > 50
30 | O=C(O)c1cc2c(Nc3ccc([N+](=O)[O-])cc3)ccc([N+](=O)[O-])c2[nH]1 | 3.4
31 | O=C(O)c1cc2c(-c3ccc(C(F)(F)F)cc3)ccc([N+](=O)[O-])c2[nH]1 | > 50
32 | O=C(O)c1cc2c(Nc3cccc([N+](=O)[O-])c3)ccc([N+](=O)[O-])c2[nH]1 | > 50
33 | O=C(O)c1cc2c(Nc3ccc(C(F)(F)F)cc3)ccc([N+](=O)[O-])c2[nH]1 | 12.2
34 | COc1cccc(-c2c(C(=O)O)[nH]c3c([N+](=O)[O-])cccc23)c1 | 35.6
35 | CC(=O)Nc1cccc(-c2ccc([N+](=O)[O-])c3[nH]c(C(=O)O)cc23)c1 | 18.5
36 | COc1cccc(N(C)c2ccc([N+](=O)[O-])c3[nH]c(C(=O)O)cc23)c1 | > 50
37 | COc1cccc(-c2ccc([N+](=O)[O-])c3[nH]c(C(=O)O)cc23)c1 | > 50
38 | O=C(O)c1cc2c(-c3ccccc3)ccc([N+](=O)[O-])c2[nH]1 | > 50
39 | N#Cc1ccc(-c2ccc([N+](=O)[O-])c3[nH]c(C(=O)O)cc23)cc1 | > 50
40 | CC(=O)Nc1cccc(-c2cc([N+](=O)[O-])c3[nH]c(C(=O)O)cc3c2)c1 | 3.7
41 | CCc1c(C(=O)O)[nH]c2c([N+](=O)[O-])cccc12 | 6.2
42 | O=C(O)c1cc2c(Nc3ccc(Cl)cc3)ccc([N+](=O)[O-])c2[nH]1 | > 50

Biological target: T1, Fructose-1,6-bisphosphatase 1
Assay: Inhibition of FBPase (unknown origin)

Row | Structure (SMILES) | IC50 [nM]
43 | O=C(O)CCc1c(C(=O)O)[nH]c2cc(Cl)cc(Cl)c12 | 2500
